Here are results for 28 compounds from patent US8772500B2, “TRPV3 modulators” (AbbVie Inc., priority 2011, dated 2014).

A value given as a limit tells only on which side of the number the result lay.

A short description of data set [1]: In vitro human microsomal stability assay. Type of data set: in vitro ADME. To be noted: human, 0.5 h, 0.5 μM, pH 7.4. How it is done: (§1) Test compounds were evaluated for metabolic stability in an in vitro rat microsomal stability assay using rat (Sprague-Dawley, from BD Biosciences) liver microsomes and/or an in vitro human microsomal stability assay using human (Xenotech) liver microsomes. […] Incubations were carried out at 37° C. with a final incubation volume of 135 μL. […] A 1.5 μL aliquot of reduced nicotine adenine disphosphonucleotide (NADPH) (Chem-Impex Int'L Inc., Lot 12532024) was also added to the time-zero plates.

A short description of data set [2]: In vitro rat microsomal stability assay. Type of data set: in vitro ADME, rat (Sprague-Dawley). Particulars: Sprague-Dawley, rat, 0.5 h, 0.5 μM, pH 7.4. As for the experimental part:
as §1

As to `O=C1CC(c2ccc(C(F)(F)F)cc2)([C@H](O)c2ccccn2)C1` [Example 164, 3-[(S)-hydroxy(pyridin-2-yl)methyl]-3-[4-(trifluoromethyl)phenyl]-cyclobutanone], the “HUMAN MICROSOMAL STABILITY (% REMAINING AFTER 30 MINUTES)” value in data set [1] turned out to be 71%. Moreover, in data set [2], the “RAT MICROSOMAL STABILITY (% REMAINING AFTER 30 MINUTES)” value is recorded as 81%.
Taken in the same sequence, the figures for `O=C1CC(c2ccc(C(F)(F)F)cc2)([C@@H](O)c2ccccn2)C1` [Example 165, 3-[(R)-hydroxy(pyridin-2-yl)methyl]-3-[4-(trifluoromethyl)phenyl]cyclobutanone] were 83% and 77%.
Regarding `OC(C1CCc2cccnc21)C1(c2ccc(Cl)c(Cl)c2)CCC1` (stereo not drawn) [Example 167, (anti)-[1-(3,4-dichlorophenyl)cyclobutyl][6,7-dihydro-5H-cyclopenta[b]-pyridin-7-yl]methanol], the “HUMAN MICROSOMAL STABILITY (% REMAINING AFTER 30 MINUTES)” value in data set [1] is listed as 9.5%. Besides, the “RAT MICROSOMAL STABILITY (% REMAINING AFTER 30 MINUTES)” value in data set [2] is below 0.01%.
The matching figures for `OC(C1CCCc2cccnc21)C1(c2ccc(F)c(F)c2)CCC1` (stereo not drawn) [Example 170, (syn)-[1-(3,4-difluorophenyl)cyclobutyl][5,6,7,8-tetrahydroquinolin-8-yl]-methanol]: below 0.01% and below 0.01%.
The matching figures for `OC(C1CCc2cccnc21)C1(c2ccc(F)c(F)c2)CCC1` (stereo not drawn) [Example 171, (anti)-[1-(3,4-difluorophenyl)cyclobutyl][6,7-dihydro-5H-cyclopenta[b]-pyridin-7-yl]methanol]: 2.7% and below 0.01%.
Taken in the same sequence, the figures for `OC(C1CCc2cccnc21)C1(c2ccc(F)c(F)c2)CCC1` (stereo not drawn) [Example 172, (syn)-[1-(3,4-difluorophenyl)cyclobutyl][6,7-dihydro-5H-cyclopenta[b]-pyridin-7-yl]methanol] were 2.4% and below 0.01%.
On to `OC(C1CCc2cccnc21)C1(c2ccc(C(F)(F)F)cc2)CCC1` (stereo not drawn) [Example 173, (anti)-6,7-dihydro-5H-cyclopenta[b]pyridin-7-yl{1-[4-(trifluoromethyl)-phenyl]cyclobutyl}methanol], for which the “HUMAN MICROSOMAL STABILITY (% REMAINING AFTER 30 MINUTES)” value in data set [1] is reported as 45%. In addition, in data set [2], the “RAT MICROSOMAL STABILITY (% REMAINING AFTER 30 MINUTES)” value is recorded as below 0.01%.
Taken in the same sequence, the figures for `OC(C1CCc2cccnc21)C1(c2ccc(C(F)(F)F)cc2)CCC1` (stereo not drawn) [Example 174, (syn)-6,7-dihydro-5H-cyclopenta[b]pyridin-7-yl{1-[4-(trifluoromethyl)-phenyl]cyclobutyl}methanol] were 26% and below 0.01%.
In the case of `OC(C1CCc2cccnc21)C1(c2ccc(OC(F)(F)F)cc2)CCC1` (stereo not drawn) [Example 175, (anti)-6,7-dihydro-5H-cyclopenta[b]pyridin-7-yl{1-[4-(trifluoromethoxy)-phenyl]cyclobutyl}methanol], the “HUMAN MICROSOMAL STABILITY (% REMAINING AFTER 30 MINUTES)” value in data set [1] came out at 29%. For the same compound, the “RAT MICROSOMAL STABILITY (% REMAINING AFTER 30 MINUTES)” value in data set [2] is given as below 0.01%.
Taken in the same sequence, the figures for `OC(C1CCc2cccnc21)C1(c2ccc(OC(F)(F)F)cc2)CCC1` (stereo not drawn) [Example 176, (syn)-6,7-dihydro-5H-cyclopenta[b]pyridin-7-yl{1-[4-(trifluoromethoxy)-phenyl]cyclobutyl}methanol] were 20% and below 0.01%.
Taken in the same sequence, the figures for `OC(C1CCc2cccnc21)C1(c2cccc(C(F)(F)F)c2)CCC1` (stereo not drawn) [Example 185, (anti)-6,7-dihydro-5H-cyclopenta[b]pyridin-7-yl{1-[3-(trifluoromethyl)-phenyl]cyclobutyl}methanol] were 0.39% and below 0.01%.
Taken in the same sequence, the figures for `OC(C1CCCc2cccnc21)C1(c2cccc(OC(F)(F)F)c2)CCC1` (stereo not drawn) [Example 187, (anti)-5,6,7,8-tetrahydroquinolin-8-yl{1-[3-(trifluoromethoxy)phenyl]-cyclobutyl}methanol] were below 0.01% and below 0.01%.
In the case of `OC(C1CCCc2cccnc21)C1(c2cccc(OC(F)(F)F)c2)CCC1` (stereo not drawn) [Example 188, (syn)-5,6,7,8-tetrahydroquinolin-8-yl{1-[3-(trifluoromethoxy)phenyl]-cyclobutyl}methanol], the “HUMAN MICROSOMAL STABILITY (% REMAINING AFTER 30 MINUTES)” value in data set [1] turned out to be 0.16%. The “RAT MICROSOMAL STABILITY (% REMAINING AFTER 30 MINUTES)” value in data set [2] is reported as below 0.01%.
The matching figures for `OC(C1CCc2cccnc21)C1(c2cccc(OC(F)(F)F)c2)CCC1` (stereo not drawn) [Example 189, (anti)-6,7-dihydro-5H-cyclopenta[b]pyridin-7-yl{1-[3-(trifluoromethoxy)-phenyl]cyclobutyl}methanol]: 0.65% and below 0.01%.
As to `OC(C1CCc2cccnc21)C1(c2cccc(OC(F)(F)F)c2)CCC1` (stereo not drawn) [Example 190, (syn)-6,7-dihydro-5H-cyclopenta[b]pyridin-7-yl{1-[3-(trifluoromethoxy)-phenyl]cyclobutyl}methanol], the “HUMAN MICROSOMAL STABILITY (% REMAINING AFTER 30 MINUTES)” value in data set [1] was found to be 3.7%. In addition, the “RAT MICROSOMAL STABILITY (% REMAINING AFTER 30 MINUTES)” value in data set [2] was below 0.01%.
Taken in the same sequence, the figures for `OC(C1CCCc2cccnc21)C1(c2ccccc2OC(F)(F)F)CCC1` (stereo not drawn) [Example 191, (anti)-5,6,7,8-tetrahydroquinolin-8-yl{1-[2-(trifluoromethoxy)phenyl]-cyclobutyl}methanol] were below 0.01% and below 0.01%.
The matching figures for `OC(C1CCCc2cccnc21)C1(c2ccccc2OC(F)(F)F)CCC1` (stereo not drawn) [Example 192, (syn)-5,6,7,8-tetrahydroquinolin-8-yl{1-[2-(trifluoromethoxy)phenyl]-cyclobutyl}methanol]: below 0.01% and below 0.01%.
The matching figures for `OC(C1CCc2cccnc21)C1(c2ccccc2OC(F)(F)F)CCC1` (stereo not drawn) [Example 193, (anti)-6,7-dihydro-5H-cyclopenta[b]pyridin-7-yl{1-[2-(trifluoromethoxy)-phenyl]cyclobutyl}methanol]: 0.02% and below 0.01%.
Consider `OC(C1CCc2cccnc21)C1(c2ccccc2OC(F)(F)F)CCC1` (stereo not drawn) [Example 194, (syn)-6,7-dihydro-5H-cyclopenta[b]pyridin-7-yl{1-[2-(trifluoromethoxy)-phenyl]cyclobutyl}methanol], for which the “HUMAN MICROSOMAL STABILITY (% REMAINING AFTER 30 MINUTES)” value in data set [1] came to 0.08%. Also, the “RAT MICROSOMAL STABILITY (% REMAINING AFTER 30 MINUTES)” value in data set [2] is below 0.01%.
Turning to `OC(C1CCCc2cccnc21)C1(c2ccccc2C(F)(F)F)CCC1` (stereo not drawn) [Example 195, (anti)-5,6,7,8-tetrahydroquinolin-8-yl{1-[2-(trifluoromethyl)phenyl]-cyclobutyl}methanol], the “HUMAN MICROSOMAL STABILITY (% REMAINING AFTER 30 MINUTES)” value in data set [1] was below 0.01%. Besides, the “RAT MICROSOMAL STABILITY (% REMAINING AFTER 30 MINUTES)” value in data set [2] is recorded as below 0.01%.
`OC(C1CCCc2cccnc21)C1(c2ccccc2C(F)(F)F)CCC1` (stereo not drawn) [Example 196, (syn)-5,6,7,8-tetrahydroquinolin-8-yl{1-[2-(trifluoromethyl)phenyl]-cyclobutyl}methanol]: the “HUMAN MICROSOMAL STABILITY (% REMAINING AFTER 30 MINUTES)” value in data set [1] is below 0.01%. In data set [2], the “RAT MICROSOMAL STABILITY (% REMAINING AFTER 30 MINUTES)” value was below 0.01%.
Take `OC(C1CCc2cccnc21)C1(c2ccccc2C(F)(F)F)CCC1` (stereo not drawn) [Example 197, (anti)-6,7-dihydro-5H-cyclopenta[b]pyridin-7-yl{1-[2-(trifluoromethyl)-phenyl]cyclobutyl}methanol]: the “HUMAN MICROSOMAL STABILITY (% REMAINING AFTER 30 MINUTES)” value in data set [1] is recorded as 0.26%. The “RAT MICROSOMAL STABILITY (% REMAINING AFTER 30 MINUTES)” value in data set [2] is below 0.01%.
Taken in the same sequence, the figures for `OC(C1CCc2cccnc21)C1(c2ccccc2C(F)(F)F)CCC1` (stereo not drawn) [Example 198, (syn)-6,7-dihydro-5H-cyclopenta[b]pyridin-7-yl{1-[2-(trifluoromethyl)-phenyl]cyclobutyl}methanol] were 0.05% and below 0.01%.
Taken in the same sequence, the figures for `O/N=C(\c1ccccn1)C1(c2ccc(Cl)c(Cl)c2)CCC1` [Example 230, (Z)-[1-(3,4-dichlorophenyl)cyclobutyl](pyridin-2-yl)methanone oxime] were 33% and 30%.
Taken in the same sequence, the figures for `OC(c1ccccn1)C1(C2CCOCC2)CCC1` (centres unmarked) [Example 239, pyridin-2-yl[1-(tetrahydro-2H-pyran-4-yl)cyclobutyl]methanol] were 57% and 0.072%.
As for `O=C1CC(c2cccc(C(F)(F)F)c2)([C@H](O)c2ccccn2)C1` [Example 241, 3-[(S)-hydroxy(pyridin-2-yl)methyl]-3-[3-(trifluoromethyl)phenyl]-cyclobutanone], the “HUMAN MICROSOMAL STABILITY (% REMAINING AFTER 30 MINUTES)” value in data set [1] is 66%. Further, the “RAT MICROSOMAL STABILITY (% REMAINING AFTER 30 MINUTES)” value in data set [2] was found to be 59%.
The matching figures for `O=C1CC(c2cccc(C(F)(F)F)c2)([C@@H](O)c2ccccn2)C1` [Example 243, 3-[(R)-hydroxy(pyridin-2-yl)methyl]-3-[3-(trifluoromethyl)phenyl]-cyclobutanone]: 64% and 55%.
Taken in the same sequence, the figures for `OC(c1ccccn1)C1(C2(O)CCOC2)CCC1` (centres unmarked) [Example 246, 3-{1-[hydroxy(pyridin-2-yl)methyl]cyclobutyl}tetrahydrofuran-3-ol] were 71% and 59%.
